# Data taken from patent publication US11572373B2, “Maytansinoid-based drug delivery systems” (LADRX CORPORATION, priority 2017, dated 2023).
# Marks after values point to notes of the source that are not given here.
# How the values were obtained:
# [1] = Stability and release kinetics of maytansinoid-HSA conjugates in buffer solution at pH 4.0 and pH 7.4; type: physicochemical; conditions: maytansinoid-HSA conjugate, PBS pH 7.4, 37° C.
# Experimental: For preparing HSA conjugates of albumin-binding maytansinoids, HSA (200 μM: 361.8 μL, 1078 μM free Cys34; 100 μM: 180.9 μL, 1078 μM free Cys34) was diluted with PBS buffer (4 mM sodium phosphate, 150 mM NaCl, pH 7.4) (200 μM: 678.2 μL; 100 μM: 859.1 μL) and DMSO (200 μM: 130.0 μL; 100 μM: 195.0 μL) and incubated in a heating block at 37° C. for 30 minutes. The albumin-binding maytansinoid was added as a 2 mM stock solution in DMSO (200 μM: 130.0 μL; 100 μM: 65.0 μL) to the preincubated HSA sample to produce a 200 μM or 100 μM solution of maytansinoid-prodrug and 300 μM or 150 μM of free Cys34. The mixture having a pH of 7.4 was allowed to react for 10 min at 37° C. and was then analyzed hourly for 24 hours by RP-HPLC (Phenomenex Aeris WP XB-C18, 3.6 μm, 250×4.6 mm).
# For studying the release kinetics at pH 4.0 the mixture was acidified with a mixture of 50 mM sodium acetate buffer pH 3.0 (200 μM: 119.3 μL; 100 μM: 125.2 μL) and 1 M HCl (200 μM: 12.7 μL; 100 μM: 6.8 μL) to reach pH 4.0. The mixture was subsequently analyzed hourly for 24 hours by RP-HPLC (Phenomenex Aeris WP XB-C18, 3.6 μm, 250×4.6 mm).
# The following RP-HPLC conditions were used: Phenomenex Aeris WP XB-C18 3.6 μm, 250×4.6 mm; eluent A (100% 20 mM Tris buffer pH 8.0) and eluent B (90:10, MeCN: water) eluting with a gradient of eluent B (25% 0-0.5 min, 25-35% 0.5-2.5 min, 35-85% 2.5-16 min, 85-95% 16-17 min, 95% 17-20 min, 95-25% 20-25 min, 25% 25-30 min, flow rate 1.0 mL/min). Column oven temperature 37° C.; autosampler temperature 37° C.; 20 μL of injection volume.
# To quantify the percentage of free drug released, standard curves of the free maytansinoids were prepared at different concentrations (200 μM, 100 μM, 50 μM, 25 μM and 12.5 μM). The area under the curve (AUC) was determined at 250 nm.
# [2] = In vitro cytotoxicity in different cell lines using the CellTiter-Blue Cell Viability Assay; type: cell-based, human; conditions: Homo sapiens; geometric mean over the n cell lines tested, 96 h treatment, CellTiter-Blue; read-out: Geomean IC50
# [3] = tested on: human tumor xenograft models; assay: Antitumor activity in human tumor xenograft mice models; type: in vivo; conditions: five human tumor xenograft models in nude mice, i.v. on day 1, 8, 15, and 22
# From the text: This included starting tumor volumes in the range of approximately 80-110 mm^3 but also initial starting tumor volumes of up to approximately 400 mm^3. Furthermore, in most cases therapy with albumin-binding maytansinoids 30 and 31 induced long-term remissions and a decrease in Relative Tumor Volume (RTV). […] Experimental procedure and the results in the tumor-bearing mice models are described in detail in Examples 11-19 and FIGS. 3-16.
# Female immunodeficient NMRI nude mice, from Charles River, received unilateral tumor implants subcutaneously in the left flank while under isoflurane anesthesia with human cancer tumors until tumors were palpable and had reached a volume of 80-200 mm^3 (unless otherwise stated).
# Animals were kept in cages, the temperature inside the cages maintained at 25±1° C. with a relative humidity of 45-65% and an air change rate in the cage of 60-fold per hour. They were kept under a 14 h light: 10 h dark, artificial light cycle. The animals were fed with autoclaved Teklad Global 19% Protein Extruded Diet (T.2019S.12) from Envigo RMS SARL and had access to sterile filtered and acidified (pH 2.5) tap water, which was changed twice weekly. Feed and water were provided ad libitum. […] Animals were routinely monitored twice daily on working days and daily on Saturdays and Sundays. […] Relative body weights (RBW) of individual animals were calculated by dividing the individual absolute body weight on day X (BWx) by the individual body weight on the day of randomization multiplied by 100%. The tumor volume was determined by a two-dimensional measurement with calipers on the day of randomization (day 0) and then twice weekly. Tumor volumes were calculated according to the following equation: Tumor Vol [mm^3]=1 [mm]×w^2 [mm^2]×0.5, where “1” is the length and “w” is width of the tumor. The relative volume of an individual tumor on day X (RTVx) was calculated by dividing the absolute individual tumor volume [mm^3] of the respective tumor on day X (Tx) by the absolute individual tumor volume of the same tumor on the day of randomization multiplied by 100%. […]
SMILES,free maytansinoid after 24 h at pH 7.4 ([1]; measured at 200 μM) [%*],other results
COc1cc2cc(c1Cl)N(C)C(=O)C[C@H](OC(=O)Cc1ccc(/C(C)=N/NC(=O)c3ccc(NC(=O)CCCCCN4C(=O)C=CC4=O)cc3S(=O)(=O)O)cc1)[C@]1(C)O[C@H]1[C@H](C)[C@@H]1C[C@@](O)(NC(=O)O1)[C@H](OC)/C=C/C=C(\C)C2 [Compound 32],9.5,
COc1cc2cc(c1Cl)N(C)C(=O)C[C@H](OC(=O)Cc1ccc(/C(C)=N/NC(=O)c3ccc(NC(=O)CCNC(=O)[C@H](CS(=O)(=O)O)NC(=O)CCCCCN4C(=O)C=CC4=O)cc3[N+](=O)[O-])cc1)[C@]1(C)O[C@H]1[C@H](C)[C@@H]1C[C@@](O)(NC(=O)O1)[C@H](OC)/C=C/C=C(\C)C2 [Compound 33],6.5,
COc1cc2cc(c1Cl)N(C)C(=O)C[C@H](OC(=O)COc1ccc(/C(C)=N/NC(=O)c3ccc(NC(=O)CCCCCN4C(=O)C=CC4=O)cc3S(=O)(=O)O)cc1)[C@]1(C)O[C@H]1[C@H](C)[C@@H]1C[C@@](O)(NC(=O)O1)[C@H](OC)/C=C/C=C(\C)C2 [Compound 36],4.7,
COc1cc2cc(c1Cl)N(C)C(=O)C[C@H](OC(=O)CSc1ccc(/C(C)=N/NC(=O)c3ccc(NC(=O)CCCCCN4C(=O)C=CC4=O)cc3S(=O)(=O)O)cc1)[C@]1(C)O[C@H]1[C@H](C)[C@@H]1C[C@@](O)(NC(=O)O1)[C@H](OC)/C=C/C=C(\C)C2 [Compound 37],3.9,
COc1cc2cc(c1Cl)N(C)C(=O)C[C@H](OC(=O)CSc1ccc(/C(C)=N/NC(=O)c3ccc(NC(=O)CCCCCN4C(=O)C=CC4=O)cc3S(=O)(=O)O)cc1C(F)(F)F)[C@]1(C)O[C@H]1[C@H](C)[C@@H]1C[C@@](O)(NC(=O)O1)[C@H](OC)/C=C/C=C(\C)C2 [Compound 38],4.9,
COc1cc2cc(c1Cl)N(C)C(=O)C[C@H](OC(=O)CSc1ccc(/C(C)=N/NC(=O)c3ccc(NC(=O)CCCCCN4C(=O)C=CC4=O)cc3S(=O)(=O)O)cc1C)[C@]1(C)O[C@H]1[C@H](C)[C@@H]1C[C@@](O)(NC(=O)O1)[C@H](OC)/C=C/C=C(\C)C2 [Compound 39],9.6,
COc1cc2cc(c1Cl)N(C)C(=O)C[C@H](OC(=O)CN(C)c1ccc(/C(C)=N/NC(=O)c3ccc(NC(=O)CCCCCN4C(=O)C=CC4=O)cc3S(=O)(=O)O)cc1)[C@]1(C)O[C@H]1[C@H](C)[C@@H]1C[C@@](O)(NC(=O)O1)[C@H](OC)/C=C/C=C(\C)C2 [Compound 40],8.9,
COc1cc2cc(c1Cl)N(C)C(=O)C[C@H](OC(=O)CCc1ccc(/C(C)=N/NC(=O)c3ccc(NC(=O)CCCCCN4C(=O)C=CC4=O)cc3S(=O)(=O)O)cc1)[C@]1(C)O[C@H]1[C@H](C)[C@@H]1C[C@@](O)(NC(=O)O1)[C@H](OC)/C=C/C=C(\C)C2 [Compound 41],4.6,
COc1cc2cc(c1Cl)N(C)C(=O)C[C@H](OC(=O)COc1cccc(/C(C)=N/NC(=O)c3ccc(NC(=O)CCNC(=O)[C@H](CS(=O)(=O)O)NC(=O)CCCCCN4C(=O)C=CC4=O)cc3[N+](=O)[O-])c1)[C@]1(C)O[C@H]1[C@H](C)[C@@H]1C[C@@](O)(NC(=O)O1)[C@H](OC)/C=C/C=C(\C)C2 [Compound 42],,free maytansinoid after 24 h at pH 7.4 ([1]; measured at 100 μM): 4.8%**
"COc1cc2cc(c1Cl)N(C)C(=O)C[C@H](OC(=O)[C@H](C)N(C)C(C)=O)[C@]1(C)O[C@H]1[C@H](C)[C@@H]1C[C@@](O)(NC(=O)O1)[C@H](OC)/C=C/C=C(\C)C2 [Maytansine, maytansine, reference compound]",,IC50 [2]: 0.22 nM; antitumor activity [3]: principally inactive in the tested models or only showed marginal tumor inhibition
